The values that follow come from PubChem BioAssay (NCI).

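In this assay, cells in 96-well plates receive the compound at five concentrations for 48 hours. Endpoints are linearly interpolated between the surrounding concentrations. TGI is the concentration that stops growth completely.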 Where a SMILES comes first, the peptide text is derived from it. [ ]: non-standard residue; d: D form. The star is where a group is joined. Bn2Val = CC(C)[C@@H](C(=O)*)N(Cc1ccccc1)Cc1ccccc1; NHPiperonyl = c1cc2c(cc1CN*)OCO2; NMeV = CN[C@H](C(=O)O)C(C)C; dNMeA = CN[C@H](C)C(=O)O

Assay in all cases: NCI tumour cell line growth inhibition, 48 h
Test [1] has as its system A498 renal.
Test [2] relates to ACHN renal.
In test [3] the test system is BT-549 breast.
In test [4] the test system is CCRF-CEM leukemia.
Test [5] deals with HL-60(TB) leukemia.
Test [6] concerns HOP-62 NSCLC.
In test [7] the test system is K-562 leukemia.
In test [8] the test system is KM12 colon.
Test [9] has as its system MCF7 breast.
Test [10] relates to MDA-MB-435.
In test [11] the test system is NCI-H460 lung.
Test [12] deals with RPMI-8226 leukemia.
Test [13] concerns SK-MEL-5 melanoma.
In test [14] the test system is SNB-19 CNS.
The test system of test [15] is TK-10 renal.
Test [16] concerns UO-31 renal.
Test [17] concerns MOLT-4 leukemia.
Test [18] has as its system T-47D breast.
Test [19] deals with SNB-75 CNS.
The subject of test [20] is SR leukemia.

Turning to `O=C(c1ccc(-c2ccccc2)cc1)N(Cc1cccnc1)C(=S)N(Cc1cccnc1)C(=O)c1ccc(-c2ccccc2)cc1`, the TGI in test [1], in test [2], in test [3], in test [4], in [5] and in test [6] was above 100 µM in each case. For the same compound, the TGI in test [7] is above 100 µM; in test [8], above 100 µM; in test [9], above 100 µM; in test [10] it was above 100 µM; in test [11], above 100 µM; in test [12] it was 72.4 µM. Also, the TGI in test [13], in test [14], in test [15] and in test [16] was above 100 µM each time.
For `CCC(C#N)NCc1ccc(CNC(C#N)CC)cc1` (stereo not drawn), the TGI in [1], in test [2], in test [3], in test [4], in [5] and in [7] was above 100 µM throughout. For the same compound, the TGI in test [8], in test [9], in test [10], in test [17], in test [11] and in [13] was above 100 µM each time. The TGI in [14], in test [18], in test [15] and in test [16] was above 100 µM each time.
Take `Cc1ccc(N/C(=C(/C(Cl)=C(Cl)Cl)[N+](=O)[O-])n2nnc3ccccc32)cc1`: the TGI in test [2] was 44.9 µM; in test [3], 37.6 µM; in [4], 64.5 µM; in test [6], 39.7 µM; in test [7] it was above 100 µM; in [8], 47.7 µM. In addition, the TGI in test [9] is above 100 µM; in [10], 40.2 µM; in [17], above 100 µM; in test [11] it was 34.4 µM; in [12] it was 64.8 µM; in [14], 33.9 µM. The figures for the TGI in test [19], in test [18] and in test [16] were 35.4 µM, 52.5 µM and 30.2 µM, respectively.
In the case of `Clc1ccc(/C=c2\nc(-c3ccccc3)n3c2nc2ccccc23)cc1`, the TGI in test [1] is above 100 µM; in test [2], 50.6 µM; in test [3] it was above 100 µM; in test [4] it was above 100 µM; in test [5] it was above 100 µM; in test [6], above 100 µM. For the same compound, the TGI in test [7], in test [8], in test [9], in test [10], in test [17] and in test [11] was above 100 µM in each case. Also, the TGI in test [12], in test [13], in test [14], in test [20], in test [15] and in test [16] was above 100 µM each time.
Turning to `c1ccc(C2(c3ccccc3)S/C(=C3/SC(c4ccccc4)(c4ccccc4)c4ccccc43)c3ccccc32)cc1`, the TGI in test [1], in [2], in test [3], in [4], in test [5] and in test [6] was above 100 µM throughout. Also, the TGI in [7], in test [8], in test [10], in [17], in test [11] and in test [13] was above 100 µM in each case. Besides, the TGI in [14], in test [19], in test [20], in [15] and in test [16] was above 100 µM each time.
Take `CC(C)[C@H](NC(=O)[C@H](C(C)C)N(Cc1ccccc1)Cc1ccccc1)C(=O)N(C)[C@H](C(=O)N1CCC[C@H]1C(=O)N(C)[C@H](C)C(=O)NCc1ccc2c(c1)OCO2)C(C)C` (Bn2Val-V[NMeV]P[dNMeA]-NHPiperonyl): the TGI in [2] is above 100 µM; in test [3], 57.5 µM; in test [4], 8.72 µM; in [5] it was 2.8 µM; in test [6], above 100 µM; in test [7] it was 54 µM. The TGI is above 100 µM in test [8]; 7.55 µM in [9]; above 96.4 µM in test [10]; above 100 µM in [17]; above 100 µM in [11]; 6.2 µM in [12]. Also, the TGI in test [14], in test [15] and in [16] was above 100 µM each time.
Turning to `S=C(Nc1ccc(Cl)cc1)c1ccc(CN2CCCCC2)s1`, the TGI in test [1] is 29 µM; in test [2] it was 60.2 µM; in [3] it was 79.3 µM; in test [4], 12.5 µM; in test [5], 6.97 µM; in test [7] it was 13.9 µM. In addition, the TGI in test [8] amounted to 56.8 µM; in [9], 61.9 µM; in [10] it was 67.6 µM; in test [17] it was 30.5 µM; in test [11] it was 21.9 µM; in [12], 20.2 µM. The values for the TGI in [13], in [20] and in test [16] were 15.1 µM, 19.5 µM and 31.9 µM, respectively.
Turning to `COC1CC(=O)C2C(=O)N(c3ccccc3)C(=O)C23C(C(=O)c2ccccc2)=C(C)NC13O` (stereo not drawn), the TGI was 47.7 µM in [1]; 37.5 µM in test [2]; above 100 µM in [3]; 28.9 µM in test [4]; 41.9 µM in test [6]; 0.21 µM in test [7]. Moreover, the TGI in [8] stood at 35.6 µM; in test [9] it was 16.7 µM; in test [10], 40.9 µM; in [11], 45.4 µM; in [12] it was 21.3 µM; in test [13], 37.4 µM. The TGI was determined as 51.1 µM in test [14], 14.1 µM in test [18], 20.2 µM in test [15] and 40.9 µM in test [16].
